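96-well plates; 48 h exposure; 5 concentrations. Endpoints by linear interpolation between flanking doses. Not reached: highest tested concentration assigned. GI50 is the concentration that inhibits growth by half.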 Activity calls are given as the source filed them. Cut-off read from the data, not from the text of the source: active = GI50 up to about 1.1 µM and inactive = higher.
Columns and labels:
Assay in all cases: growth of human tumour cells (NCI), 48 h
RPMI-8226 = test system: RPMI-8226
SNB-19 = test system: SNB-19
Malme-3M = test system: Malme-3M
SF-539 = test system: SF-539
UACC-62 = test system: UACC-62
M14 = test system: M14
MOLT-4 = test system: MOLT-4
COLO 205 = test system: COLO 205
OVCAR-8 = test system: OVCAR-8
HOP-62 = test system: HOP-62
HT-29 = test system: HT-29
HL-60 = test system: HL-60
HCT-15 = test system: HCT-15
OVCAR-3 = test system: OVCAR-3
SW-620 = test system: SW-620
SK-MEL-28 = test system: SK-MEL-28
RXF 393 = test system: RXF 393

Row | SMILES | GI50 (RPMI-8226) | GI50 (SNB-19) | GI50 (Malme-3M) | GI50 (SF-539) | GI50 (UACC-62) | GI50 (M14) | GI50 (MOLT-4) | GI50 (COLO 205) | GI50 (OVCAR-8) | GI50 (HOP-62) | GI50 (HT-29) | GI50 (HL-60) | GI50 (HCT-15) [µM] | GI50 (OVCAR-3) | GI50 (SW-620) | GI50 (SK-MEL-28) | GI50 (RXF 393)
1 | O=C(Nc1ccccc1)n1cc(-c2ccccn2)c(N2CCOCC2)n1 | 4.27 µM (inactive) | 9.57 µM (inactive) | 2.54 µM (inactive) | 6.73 µM (inactive) | 5.62 µM (inactive) | 8.91 µM (inactive) | 4.15 µM (inactive) | 5.14 µM (inactive) | 46 µM (inactive) | 6.59 µM (inactive) | 2.69 µM (inactive) | 2.44 µM (inactive) | 4.47 | 2.12 µM (inactive) | 5.85 µM (inactive) |  | 
2 | N#CC(c1ccc(Cl)cc1)c1cccc(Cl)n1 (stereo not drawn) | 51.1 µM (inactive) | > 100 µM (inactive) | 74.5 µM (inactive) |  | 42.6 µM (inactive) | 79.8 µM (inactive) | 55.8 µM (inactive) | 67.1 µM (inactive) | > 100 µM (inactive) | 91 µM (inactive) | 83.6 µM (inactive) | 47.1 µM (inactive) |  | 34 µM (inactive) | > 100 µM (inactive) | 86.9 µM (inactive) | 
3 | CC1=CC(=O)NP(=O)(Oc2ccc(C)cc2)N1 (stereo not drawn) | > 100 µM (inactive) | > 100 µM (inactive) | > 100 µM (inactive) | > 100 µM (inactive) | > 100 µM (inactive) | > 100 µM (inactive) | > 100 µM (inactive) | > 100 µM (inactive) | > 100 µM (inactive) | > 100 µM (inactive) | > 100 µM (inactive) | > 100 µM (inactive) | > 100 | > 100 µM (inactive) | > 100 µM (inactive) | > 100 µM (inactive) | 
4 | CCCOCN1COCN/C1=N\C#N | 69.7 µM (inactive) | > 100 µM (inactive) | > 100 µM (inactive) | > 100 µM (inactive) | > 100 µM (inactive) | > 100 µM (inactive) | > 100 µM (inactive) | 17.9 µM (inactive) | > 100 µM (inactive) | > 100 µM (inactive) | 48.2 µM (inactive) | > 100 µM (inactive) | 17.1 | > 100 µM (inactive) | 14 µM (inactive) | > 100 µM (inactive) | 15.3 µM (inactive)
5 | COc1ccc([C@@H]2OC(=O)C3C2C(=O)O[C@H]3c2ccc(OC)cc2)cc1 (stereo partly drawn) | > 100 µM (inactive) | > 100 µM (inactive) |  | > 100 µM (inactive) | > 100 µM (inactive) |  | > 100 µM (inactive) | > 100 µM (inactive) | > 100 µM (inactive) | > 100 µM (inactive) | > 100 µM (inactive) | > 100 µM (inactive) | > 100 | > 100 µM (inactive) | > 100 µM (inactive) | > 100 µM (inactive) | 76.4 µM (inactive)
6 | CCOC(=O)[C-]([N+]#N)[Si](C)(C)C |  | > 100 µM (inactive) | > 100 µM (inactive) | > 100 µM (inactive) | 72.4 µM (inactive) |  |  | > 100 µM (inactive) | > 100 µM (inactive) | 20.5 µM (inactive) | > 100 µM (inactive) |  | 27.5 | > 100 µM (inactive) | > 100 µM (inactive) | 18.5 µM (inactive) | > 100 µM (inactive)
7 | O=C(O)CNc1c2ccccc2nc2ccccc12 | 56.8 µM (inactive) | > 100 µM (inactive) | > 100 µM (inactive) | > 100 µM (inactive) | > 100 µM (inactive) | > 100 µM (inactive) | > 100 µM (inactive) | > 100 µM (inactive) | > 100 µM (inactive) |  | > 100 µM (inactive) | 48.2 µM (inactive) | > 100 | 80.4 µM (inactive) | > 100 µM (inactive) | > 100 µM (inactive) | > 100 µM (inactive)
8 | c1ccc(COCC2OC3c4ccccc4COC3C2OCc2ccccc2)cc1 (stereo not drawn) | 63 µM (inactive) | > 100 µM (inactive) | > 100 µM (inactive) | > 100 µM (inactive) | 52.7 µM (inactive) | > 100 µM (inactive) | 48.8 µM (inactive) | > 100 µM (inactive) | > 100 µM (inactive) |  | 99.1 µM (inactive) |  | 69.5 | > 100 µM (inactive) | > 100 µM (inactive) | > 100 µM (inactive) | 32 µM (inactive)
9 | CC1OC(n2cc(C(F)(F)F)c(=O)[nH]c2=O)C=CC1=O (stereo not drawn) | 13.5 µM (inactive) | 16.4 µM (inactive) | 18.4 µM (inactive) | 18.9 µM (inactive) | 21 µM (inactive) | 22.9 µM (inactive) | 22.6 µM (inactive) | 19.3 µM (inactive) | 27.2 µM (inactive) | 27.7 µM (inactive) | 24.5 µM (inactive) | 18.5 µM (inactive) | 20.7 | 17.7 µM (inactive) | 17.6 µM (inactive) | 21 µM (inactive) | 
10 | O=C1Nc2ccccc2N=CC1NC(=O)C(c1ccccc1)c1ccccc1 (stereo not drawn) | > 100 µM (inactive) | > 100 µM (inactive) | > 100 µM (inactive) | > 100 µM (inactive) | > 100 µM (inactive) | > 100 µM (inactive) | 79.3 µM (inactive) | > 100 µM (inactive) | > 100 µM (inactive) | > 100 µM (inactive) | > 100 µM (inactive) | > 100 µM (inactive) | > 100 | > 100 µM (inactive) | > 100 µM (inactive) | > 100 µM (inactive) | > 100 µM (inactive)
11 | O=C(COc1ccc(Cl)cc1)N1CCN(C(=O)COc2ccc(Cl)cc2)c2ccccc21 | 20.6 µM (inactive) |  | 36.6 µM (inactive) | > 100 µM (inactive) |  |  | 19.2 µM (inactive) | 45.2 µM (inactive) | 53.2 µM (inactive) | > 100 µM (inactive) | 50.5 µM (inactive) | 13.4 µM (inactive) |  | 54.6 µM (inactive) | > 100 µM (inactive) | 21.2 µM (inactive) | 47.6 µM (inactive)
12 | CC12CP(=O)(c3ccccc3)CC1C2(Cl)Cl (stereo not drawn) | > 100 µM (inactive) | > 100 µM (inactive) |  | > 100 µM (inactive) | > 100 µM (inactive) | > 100 µM (inactive) | > 100 µM (inactive) | > 100 µM (inactive) | > 100 µM (inactive) | > 100 µM (inactive) | > 100 µM (inactive) | > 10 µM (inactive) |  | > 100 µM (inactive) | > 100 µM (inactive) | > 100 µM (inactive) | > 100 µM (inactive)
13 | CC(=O)Nc1c(Nc2ccccc2)[nH]c(C)nc1=S | > 100 µM (inactive) | > 100 µM (inactive) | > 100 µM (inactive) |  | > 100 µM (inactive) | > 100 µM (inactive) | > 100 µM (inactive) | > 100 µM (inactive) | > 100 µM (inactive) | > 100 µM (inactive) |  | > 100 µM (inactive) | > 100 | > 100 µM (inactive) | > 100 µM (inactive) | > 100 µM (inactive) | > 100 µM (inactive)
14 | CC(=O)OCC1OC(N2C(=O)C(=O)c3ccccc32)C(OC(C)=O)C(OC(C)=O)C1OC(C)=O (stereo not drawn) | > 100 µM (inactive) | > 100 µM (inactive) | > 100 µM (inactive) | > 100 µM (inactive) | > 100 µM (inactive) | > 100 µM (inactive) | > 100 µM (inactive) | > 100 µM (inactive) | > 100 µM (inactive) | > 100 µM (inactive) | > 100 µM (inactive) |  | > 100 | > 100 µM (inactive) | > 100 µM (inactive) | > 100 µM (inactive) | > 100 µM (inactive)
15 | CCOC12OC3=C(CC1CC1=C(CCC1=O)O2)C(=O)CC3 (stereo not drawn) | > 100 µM (inactive) | > 100 µM (inactive) | > 100 µM (inactive) | > 100 µM (inactive) | > 100 µM (inactive) | > 100 µM (inactive) | > 100 µM (inactive) | > 100 µM (inactive) | > 100 µM (inactive) | > 100 µM (inactive) | > 100 µM (inactive) | > 100 µM (inactive) | > 100 | > 100 µM (inactive) | > 100 µM (inactive) |  | > 100 µM (inactive)
16 | Cc1c(Cl)ccc2[s+]snc12 |  | 73.3 µM (inactive) | 49.8 µM (inactive) | 21.4 µM (inactive) | 22.3 µM (inactive) | 24.5 µM (inactive) | 26.7 µM (inactive) | > 100 µM (inactive) | 21.6 µM (inactive) | 51.6 µM (inactive) | 34.4 µM (inactive) | 17.6 µM (inactive) | 46.2 | 51.3 µM (inactive) | 27.7 µM (inactive) | 29.4 µM (inactive) | 19.8 µM (inactive)
17 | O=C1C2C3C=C4c5ccccc5N(c5ccccc5)C4(C2C(=O)N1c1ccc(Cl)cc1)[C@H]1C(=O)N(c2ccc(Cl)cc2)C(=O)[C@@H]31 (stereo partly drawn) | 22.2 µM (inactive) | > 100 µM (inactive) | > 100 µM (inactive) | > 100 µM (inactive) | > 100 µM (inactive) | 35.7 µM (inactive) | > 100 µM (inactive) | 64.7 µM (inactive) | > 100 µM (inactive) | > 100 µM (inactive) | > 100 µM (inactive) | > 100 µM (inactive) | > 100 | > 100 µM (inactive) | > 100 µM (inactive) |  | > 100 µM (inactive)
18 | Cc1ccc(-c2cc(O)c3cc4c(cc3n2)OCO4)cc1 | 2.13 µM (inactive) | 3.12 µM (inactive) | 0.52 µM (active) | 1.31 µM (inactive) | 0.729 µM (active) | 0.817 µM (active) | 2.72 µM (inactive) | 0.63 µM (active) | 3.2 µM (inactive) | 2.25 µM (inactive) | 2.18 µM (inactive) | 0.43 µM (active) | 0.501 | 0.929 µM (active) | 0.482 µM (active) | 2.67 µM (inactive) | 1.44 µM (inactive)
